How the values were obtained:
[1] = Microsomal clearance assay (M); settings: intrinsic clearance in rat liver microsomes
Procedure: The experiments were performed in 96-well glass plates at 37° C. on an automated Tecan EVO platform. Test compounds at a concentration of 10 mM in pure DMSO were diluted 1:1000 in water to 10 μM. […] Reactions were initiated by the addition of 150 μL of a cofactor solution containing 2 mM NADPH.

PI 3-kinase alpha [2] = molecular target: T1, PI 3-kinase alpha (Homo sapiens, UniProt P42336); assay: Kinase Glo Luminescent Kinase Assay (Kglo), assay A; type: biochemical; settings: read-out: Assay A PI3Kα IC50
Procedure: (§1) Kinase Glo Luminescent Kinase Assay (Kglo) for Pb 3-Kinase Alpha (A), Pb 3-Kinase Beta (B), Vps34 (C), Pb 4-Kinase Beta (D)
(§2) The Kinase Glo Luminescent Kinase Assay (Promega, Madison/Wis., USA) is a homogeneous HTS method of measuring kinase activity by quantifying the amount of ATP remaining in solution following a kinase reaction.
(§3) L-α-phosphatidylinositol (PI), provided as 10 mg/ml solution in methanol, was transferred into a glass tube and dried under a nitrogen beam. It was then resuspended in 3% OctylGlucoside (1-0-n-octyl-beta-D-glucopyranoside) by vortexing and stored at 4° C. 5 μL of a mix of PI/OctylGlucoside with the PI 3-kinase alpha and PI 3-kinase beta subtypes, or Vps34 or PI 4-kinase beta were added. Kinase reactions were started by the addition of 5 μl of an ATP-mix containing in a final volume 10 μL 10 mM TRIS-HCl pH 7.5, 3 mM MgCl2, 50 mM NaCl, 0.05% CHAPS, 1 mM DTT and 1 μM ATP at room temperature.
(§4) All fits were performed with the program XLfit4 (ID Business Solutions, Guildford, UK).

PI 4-kinase beta = PI 4-kinase beta (Homo sapiens, UniProt Q9UBF8); assay: Kinase Glo Luminescent Kinase Assay (Kglo), assay D; type: biochemical; settings: read-out: Assay D PI4Kβ IC50
PI 4-kinase beta, sequence (Q9UBF8 whole entry): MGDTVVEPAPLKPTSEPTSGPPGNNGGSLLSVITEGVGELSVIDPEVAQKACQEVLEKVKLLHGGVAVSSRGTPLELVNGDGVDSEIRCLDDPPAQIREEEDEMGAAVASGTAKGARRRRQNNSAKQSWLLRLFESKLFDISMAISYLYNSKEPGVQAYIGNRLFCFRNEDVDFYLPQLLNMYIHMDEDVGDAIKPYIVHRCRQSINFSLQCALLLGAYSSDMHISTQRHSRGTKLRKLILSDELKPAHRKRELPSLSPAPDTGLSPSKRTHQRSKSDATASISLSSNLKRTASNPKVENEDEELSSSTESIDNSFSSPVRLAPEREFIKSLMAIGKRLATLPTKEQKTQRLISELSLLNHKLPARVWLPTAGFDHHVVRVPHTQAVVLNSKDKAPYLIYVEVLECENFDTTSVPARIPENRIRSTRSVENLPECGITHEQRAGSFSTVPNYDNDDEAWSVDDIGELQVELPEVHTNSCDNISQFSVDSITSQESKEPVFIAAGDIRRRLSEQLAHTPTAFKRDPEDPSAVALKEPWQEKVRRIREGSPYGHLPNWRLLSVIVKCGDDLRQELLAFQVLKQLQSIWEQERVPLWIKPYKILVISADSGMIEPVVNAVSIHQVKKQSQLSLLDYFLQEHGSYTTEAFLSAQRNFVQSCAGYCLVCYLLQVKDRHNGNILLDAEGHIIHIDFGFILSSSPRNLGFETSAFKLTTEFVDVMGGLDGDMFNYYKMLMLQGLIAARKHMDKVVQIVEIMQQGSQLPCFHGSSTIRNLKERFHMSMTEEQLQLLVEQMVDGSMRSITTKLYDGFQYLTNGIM
Procedure: as §1, §2, §3, §4

PI 3-kinase alpha [3] = molecular target: T1, PI 3-kinase alpha; assay: Cellular assay H2, p-AKT (Ser473) in Rat-1 cells, HTRF format; type: cell-based; settings: asterisked data: version H2 (HTRF format), read-out: Assay H PI3Kα IC50
Procedure: Cellular Assays for PI 3-Kinase Alpha (H2), Beta (12) and Delta (J2): HTRF (Homogeneous Time Resolved Fluorescence) Format
All cell lines were cultivated in complete growth medium (DMEM high glucose GlutaMAX™ Pyruvate, 10% (v/v) fetal bovine serum, 0.1 mM MEM NEAA, 25 mM HEPES, puromycin 10 μg/mL, 100 U/ml Penicillin, 100 μg/ml Streptomycin) to 90% confluency at 37° C./5% CO2/90% humidity in a humidified CO2 incubator and were split twice a week.
Semi-automated preparation of cell lysates: For low (inhibited) controls, 0.9 mM NVP-BGT226-AF-1 in 90% (v/v) DMSO was added to the compound master plate. For compound testing, the cells were seeded at a density of 4000 (Rat-1_PI3Kdelta), 8000 (Rat-1_PI3Kalpha), or 6500 (Rat-1_PI3Kbeta) cells in 30 μl complete growth medium into cell culture treated 384-well plates and were grown at 37° C./5% CO2/90% humidity for 24 h. 10 μl of the compound predilutions were transferred to the cells.

PI 3-kinase gamma [4] = molecular target: T2, PI 3-kinase gamma (Homo sapiens, UniProt P48736); assay: TR-FRET Adapta assay, assay E; type: biochemical; settings: read-out: Assay E PI3Kγ IC50
T2 sequence (P48736 whole entry): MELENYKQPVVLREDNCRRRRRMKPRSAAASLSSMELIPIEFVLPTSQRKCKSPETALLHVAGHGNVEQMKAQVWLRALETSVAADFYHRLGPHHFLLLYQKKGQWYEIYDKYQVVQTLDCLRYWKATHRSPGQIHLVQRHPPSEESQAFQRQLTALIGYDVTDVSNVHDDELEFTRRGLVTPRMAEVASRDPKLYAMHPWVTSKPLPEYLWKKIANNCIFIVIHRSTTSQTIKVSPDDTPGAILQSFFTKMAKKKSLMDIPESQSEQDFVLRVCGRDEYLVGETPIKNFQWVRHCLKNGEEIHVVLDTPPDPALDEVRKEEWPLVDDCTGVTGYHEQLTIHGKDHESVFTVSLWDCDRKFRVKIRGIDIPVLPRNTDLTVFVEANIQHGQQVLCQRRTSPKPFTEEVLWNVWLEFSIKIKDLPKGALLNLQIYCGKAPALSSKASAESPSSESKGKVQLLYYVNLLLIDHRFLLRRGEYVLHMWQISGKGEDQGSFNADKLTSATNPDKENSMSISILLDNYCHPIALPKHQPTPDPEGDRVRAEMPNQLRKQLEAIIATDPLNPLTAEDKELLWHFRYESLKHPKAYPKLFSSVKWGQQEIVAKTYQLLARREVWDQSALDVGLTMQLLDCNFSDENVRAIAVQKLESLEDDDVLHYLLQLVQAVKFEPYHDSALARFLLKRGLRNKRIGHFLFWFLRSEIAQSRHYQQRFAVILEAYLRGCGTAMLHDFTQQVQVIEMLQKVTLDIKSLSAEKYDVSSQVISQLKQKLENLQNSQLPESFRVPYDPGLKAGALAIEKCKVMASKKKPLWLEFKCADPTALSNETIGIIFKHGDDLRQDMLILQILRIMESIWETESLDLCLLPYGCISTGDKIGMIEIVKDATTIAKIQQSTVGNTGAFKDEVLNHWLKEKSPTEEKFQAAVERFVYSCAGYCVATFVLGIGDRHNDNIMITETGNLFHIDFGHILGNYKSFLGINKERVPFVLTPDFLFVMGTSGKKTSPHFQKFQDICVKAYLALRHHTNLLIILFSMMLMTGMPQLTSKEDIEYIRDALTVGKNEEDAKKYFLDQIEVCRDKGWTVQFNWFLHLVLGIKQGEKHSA
Procedure: TR-FRET Adapta Assay for PI 3-Kinase Gamma (E), PI 3-Kinase Delta (F)
The TR-FRET Adapta™ Universal Kinase Assay Kit was purchased from Invitrogen Corporation (Carlsbad/CA, USA) (Cat. No. PV5099).
PIK3CD substrate phosphatidylinositol (PI) was obtained from Invitrogen (vesicules consisting of 2 mM phosphatidylinositol (PI) in 50 mM HEPES pH7.5; Cat. No. PV5371). PIK3CG substrate phosphatidylinositol-4,5-bisphosphate (PIP(4,5)2 was obtained from Invitrogen (PIP2:PS large unilamellar vesicules consisting of 1 mM PIP2: 19 mM PS in 50 mM HEPES pH7.5, 3 mM MgCl2, 1 mM EGTA; Cat. No. PV5100).
Time-Resolved Fluorescence Resonance Energy Transfer (TR-FRET) is a technology based on energy transfer between two adjacent dyes, from an excited electron in one dye (the donor) to an electron of an adjacent dye (the acceptor) through resonance, then released as a photon. This energy transfer is detected by an increase in the fluorescence emission of the acceptor, and a decrease in the fluorescence emission of the donor. TR-FRET assays for protein kinases use a long-lifetime lanthanide Terbium or Europium chelates as the donor species which overcome interference from compound autofluorescence or light scatter from precipitated compounds, by introducing a delay after excitation by a flashlamp excitation source. Results are often expressed as a ratio of the intensities of the acceptor and donor fluorophores. The ratiometric nature of such a value corrects for differences in assay volumes between wells, as well as corrects for quenching effects due to colored compounds. The Adapta™ assay can be divided into two phases: a kinase reaction phase and an ADP detection phase. In the kinase reaction phase, all kinase reaction components are added to the well and the reaction is allowed to incubate for a set period of time specific for each kinase. […] In the presence of an inhibitor, the amount of ADP formed by the kinase reaction is reduced, and the resulting intact antibody-tracer interaction maintains a high TR-FRET signal.
50 nL of compound dilutions were dispensed onto white 384-well small volume polystyrene plate. Then 5 μL of either PI 3-kinase gamma or PI 3-kinase delta and lipid substrate (PI or PIP2:PS) followed by 5 μL of ATP (final assay volume 10 μL) are incubated at RT. The standard reaction buffer for the Adapta™ TR-FRET assay contained 10 mM Tris-HCl pH 7.5, 3 mM MgCl2, 50 mM NaCl, 1 mM DTT, 0.05% CHAPS 3-[(3-cholamidopropyl)dimethylammonio]-1-propanesulfonate).
Data are analyzed using Excel fit software or Graphpad Prism. IC50 values were derived by fitting a sigmoidal dose-response curve to a plot of assay readout over inhibitor concentration. All fits were performed with the program XLfit4 (ID Business Solutions, Guildford, UK). […] All fits were performed with the program XLfit4 (ID Business Solutions, Guildford, UK).

[5] = test system: IL-8-induced neutrophil shape change in human whole blood; assay: Whole blood neutrophil shape change assay (L); type: cell-based; settings: Homo sapiens, Neutrophil, IL-8, human whole blood, read-out: Assay L WBSC IC50
PI 3-kinase gamma [6] = molecular target: T2, PI 3-kinase gamma; assay: Cellular U937 AKT assay K2 (HTRF); type: cell-based; settings: U937 cells, K2 format; read-out: Assay K2 PI3Kγ IC50
Procedure: In assays K1 and K2, the compounds were tested for their ability to inhibit the production of phosphorylated AKT (Protein Kinase B) generated in a PI 3-kinase gamma isoform-dependent process in a U937 human cell line.
Cellular U937 AKT Assay for PI 3-Kinase Gamma (K2)
U937 cells are split every 3-4 days: 5×10^6 cells/flask (175 cm^2) in 40 ml.
Semi-automated preparation of cell lysates: Cells were resuspended in HBSS, seeded (200′000 cells/well/60 μl) into a 384-well plate and incubated in a humidified 37° C., 5% CO2 incubator for 1.5 hours. The compounds were diluted with HBSS and 40 μl were added to the starved cells (except for wells 24 I-P). […] The cells were then incubated for 30 minutes at 37° C. and 5% CO2. Stimulation occurred during 3 minutes by addition of 20 μl MIP1α (final 10 ng/ml, diluted in HBSS) in the incubator. Wells 24 A-H were only stimulated with HBSS.
The stimulation was then stopped by putting the cell plates on ice (filled with cold water). The cells were then centrifuged at 1200 rpm and 4° C. for 3 minutes.
80 μl of supernatant was removed. The cells were again centrifuged at 1200 rpm and 4° C. for 3 minutes. The supernatant was then removed by turning plates upside down and 30 μl of lysis buffer were added. The plate was incubated at room temperature for 30 minutes under shaking. 16 μl were then transferred to a ProxiPlate Plus 384-well. 4 μl of the master mix (each conjugate diluted 1:20 with detection reagent) were added to each well and the plate was kept in the dark at room temperature for 4 hours.

PI 3-kinase beta [7] = molecular target: T3, PI 3-kinase beta (Homo sapiens, UniProt P42338); assay: Cellular assay I1, p-Akt (S473) in Rat-1 cells, Surefire format; type: cell-based; settings: non-asterisked data: version I1 (Surefire format), Rat-1 cells; read-out: Assay I PI3Kβ IC50
Target sequence in this assay (P42338 whole entry): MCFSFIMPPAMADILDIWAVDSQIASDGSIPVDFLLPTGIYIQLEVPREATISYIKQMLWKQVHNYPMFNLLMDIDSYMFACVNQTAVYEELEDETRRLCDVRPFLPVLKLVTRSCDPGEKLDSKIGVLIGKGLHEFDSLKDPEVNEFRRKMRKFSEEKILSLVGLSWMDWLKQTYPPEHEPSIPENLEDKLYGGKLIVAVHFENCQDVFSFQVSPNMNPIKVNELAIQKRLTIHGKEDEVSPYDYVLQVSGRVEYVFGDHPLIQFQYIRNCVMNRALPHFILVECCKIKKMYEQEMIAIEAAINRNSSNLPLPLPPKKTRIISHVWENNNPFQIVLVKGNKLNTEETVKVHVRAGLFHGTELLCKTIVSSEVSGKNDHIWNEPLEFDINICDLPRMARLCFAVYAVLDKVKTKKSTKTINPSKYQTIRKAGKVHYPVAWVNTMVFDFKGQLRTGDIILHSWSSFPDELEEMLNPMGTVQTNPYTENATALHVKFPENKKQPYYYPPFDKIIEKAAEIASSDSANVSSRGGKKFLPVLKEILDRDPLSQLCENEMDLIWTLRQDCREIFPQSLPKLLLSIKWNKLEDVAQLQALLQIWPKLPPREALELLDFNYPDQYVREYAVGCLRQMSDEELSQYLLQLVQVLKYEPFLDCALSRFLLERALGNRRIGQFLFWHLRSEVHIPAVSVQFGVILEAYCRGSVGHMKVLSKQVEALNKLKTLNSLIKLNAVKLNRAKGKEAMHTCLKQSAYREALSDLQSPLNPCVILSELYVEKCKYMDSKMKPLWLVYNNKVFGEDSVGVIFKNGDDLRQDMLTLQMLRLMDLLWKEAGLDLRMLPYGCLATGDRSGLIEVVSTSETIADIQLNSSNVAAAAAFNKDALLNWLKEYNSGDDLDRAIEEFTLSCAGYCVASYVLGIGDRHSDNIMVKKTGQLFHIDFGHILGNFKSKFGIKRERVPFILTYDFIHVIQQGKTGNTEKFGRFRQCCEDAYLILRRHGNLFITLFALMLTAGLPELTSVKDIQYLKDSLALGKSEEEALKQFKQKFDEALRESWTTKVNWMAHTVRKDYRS
Target sequence in this assay (Q63787 whole entry partner): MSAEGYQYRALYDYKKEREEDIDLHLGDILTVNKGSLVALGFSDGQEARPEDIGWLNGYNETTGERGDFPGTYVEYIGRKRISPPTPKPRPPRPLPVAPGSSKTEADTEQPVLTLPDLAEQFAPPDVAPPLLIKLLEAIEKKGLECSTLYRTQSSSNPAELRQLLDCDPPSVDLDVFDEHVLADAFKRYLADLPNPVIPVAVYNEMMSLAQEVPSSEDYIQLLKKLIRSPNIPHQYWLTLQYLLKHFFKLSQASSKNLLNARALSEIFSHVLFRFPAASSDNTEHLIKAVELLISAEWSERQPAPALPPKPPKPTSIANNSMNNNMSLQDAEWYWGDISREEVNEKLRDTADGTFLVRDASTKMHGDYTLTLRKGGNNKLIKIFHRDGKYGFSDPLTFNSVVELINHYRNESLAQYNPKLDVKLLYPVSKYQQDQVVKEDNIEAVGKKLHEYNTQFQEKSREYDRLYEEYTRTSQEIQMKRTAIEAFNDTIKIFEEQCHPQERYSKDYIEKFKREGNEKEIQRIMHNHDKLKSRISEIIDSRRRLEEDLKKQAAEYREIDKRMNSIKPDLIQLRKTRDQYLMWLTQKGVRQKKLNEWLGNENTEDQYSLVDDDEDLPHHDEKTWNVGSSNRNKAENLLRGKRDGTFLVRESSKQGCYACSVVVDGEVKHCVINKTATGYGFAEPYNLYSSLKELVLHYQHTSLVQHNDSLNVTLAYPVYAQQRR

PI 3-kinase delta [8] = molecular target: T4, PI 3-kinase delta (Homo sapiens, UniProt O00329); assay: TR-FRET Adapta assay, assay F
PI 3-kinase delta [9] = molecular target: T4, PI 3-kinase delta; assay: Cellular assay J1, p-Akt (S473) in Rat-1 cells, Surefire format; type: cell-based; settings: non-asterisked data: version J1 (Surefire format), Rat-1 cells; read-out: Assay J PI3Kδ IC50
mTOR = mTOR (Homo sapiens, UniProt P42345); assay: Lanthascreen kinase binding assay, assay G; settings: read-out: Assay G mTOR IC50
Procedure: Lanthascreen™ Kinase Binding Assay for mTOR (G)
Binding of an inhibitor to the kinase competes for binding with the tracer, resulting in a loss of FRET.
50 nL of compound dilutions were dispensed onto white 384-well small volume polystyrene plate.

PI 3-kinase alpha [10] = molecular target: T1, PI 3-kinase alpha; assay: Cellular assay H1, p-Akt (S473) in Rat-1 cells, Surefire format; type: cell-based; settings: non-asterisked data: version H1 (Surefire format), Rat-1 cells; read-out: Assay H PI3Kα IC50
PI 3-kinase gamma [11] = molecular target: T2, PI 3-kinase gamma; assay: Cellular U937 AKT assay K1 (MSD); type: cell-based; settings: U937 cells, K1 format; read-out: Assay K1 PI3Kγ IC50
Vps34 = Vps34 (Homo sapiens, UniProt Q8NEB9); assay: Kinase Glo Luminescent Kinase Assay (Kglo), assay C; type: biochemical; settings: read-out: Assay C VPS34 IC50
Vps34, sequence (Q8NEB9 whole entry, species assumed): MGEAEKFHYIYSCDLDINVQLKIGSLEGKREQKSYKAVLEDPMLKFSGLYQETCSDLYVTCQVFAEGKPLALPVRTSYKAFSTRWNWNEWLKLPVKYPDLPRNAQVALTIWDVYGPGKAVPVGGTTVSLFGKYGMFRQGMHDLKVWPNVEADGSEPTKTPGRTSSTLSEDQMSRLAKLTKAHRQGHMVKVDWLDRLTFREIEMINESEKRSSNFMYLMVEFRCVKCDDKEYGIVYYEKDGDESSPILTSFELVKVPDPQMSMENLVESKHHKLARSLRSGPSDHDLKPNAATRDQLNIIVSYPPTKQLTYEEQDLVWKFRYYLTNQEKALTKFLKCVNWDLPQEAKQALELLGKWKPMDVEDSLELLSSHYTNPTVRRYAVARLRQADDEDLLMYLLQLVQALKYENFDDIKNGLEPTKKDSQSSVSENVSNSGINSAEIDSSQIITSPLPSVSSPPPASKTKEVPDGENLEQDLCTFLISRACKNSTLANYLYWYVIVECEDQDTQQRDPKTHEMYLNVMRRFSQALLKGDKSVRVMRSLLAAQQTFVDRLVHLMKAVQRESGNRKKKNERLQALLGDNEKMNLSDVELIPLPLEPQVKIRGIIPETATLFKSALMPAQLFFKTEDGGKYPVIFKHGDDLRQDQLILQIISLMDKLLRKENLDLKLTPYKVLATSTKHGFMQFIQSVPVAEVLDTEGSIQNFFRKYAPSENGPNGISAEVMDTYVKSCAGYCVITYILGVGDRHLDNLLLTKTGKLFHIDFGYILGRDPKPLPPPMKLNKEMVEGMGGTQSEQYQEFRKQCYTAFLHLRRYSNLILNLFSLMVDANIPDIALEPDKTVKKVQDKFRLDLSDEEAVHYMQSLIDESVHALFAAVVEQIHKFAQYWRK

PI 3-kinase beta [12] = molecular target: T3, PI 3-kinase beta; assay: Kinase Glo Luminescent Kinase Assay (Kglo), assay B; type: biochemical; settings: read-out: Assay B PI3Kβ IC50
Target sequence in this assay (P42338 whole entry): as the sequence (P42338 whole entry) above
Target sequence in this assay (P27986 461-568 partner): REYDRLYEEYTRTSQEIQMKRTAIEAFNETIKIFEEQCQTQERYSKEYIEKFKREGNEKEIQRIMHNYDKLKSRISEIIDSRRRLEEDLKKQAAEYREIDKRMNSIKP

Compound	Assay M RLM CI(int) [1]	IC50 (PI 3-kinase alpha [2])	IC50 (PI 4-kinase beta)	IC50 (PI 3-kinase gamma [4])	IC50 [5]	IC50 (PI 3-kinase gamma [6])	IC50 (PI 3-kinase beta [7])	IC50 (PI 3-kinase delta [8]; read-out: Assay F PI3Kδ IC50)	IC50 (PI 3-kinase delta [9])	IC50 (mTOR)	IC50 (PI 3-kinase alpha [10])	IC50 (PI 3-kinase gamma [11])	IC50 (Vps34)	IC50 (PI 3-kinase beta [12])	IC50 (PI 3-kinase delta [8])	IC50 (PI 3-kinase alpha [3])
Cc1ncc(-c2nc(-c3cc(S(=O)(=O)NC[C@H]4CCCO4)ccc3C)cnc2N)s1 (single isomer, unassigned) [Example 45.6b, (R)-3-(5-Amino-6-(2-methylthiazol-5-yl)pyrazin-2-yl)-4-methyl-N-((tetrahydrofuran-2-yl)methyl)benzenesulfonamide or (S)-3-(5-Amino-6-(2-methylthiazol-5-yl)pyrazin-2-yl)-4-methyl-N-((tetrahydrofuran-2-yl)methyl)benzenesulfonamide]	237 µL/min/mg	0.38 µM	> 10 µM	0.042 µM												1.76 µM
Cc1ncc(-c2nc(-c3cc(S(=O)(=O)NC[C@H]4CCCO4)ccc3C)cnc2N)s1 (single isomer, unassigned) [Example 45.6a, (R)-3-(5-Amino-6-(2-methylthiazol-5-yl)pyrazin-2-yl)-4-methyl-N-((tetrahydrofuran-2-yl)methyl)benzenesulfonamide or (S)-3-(5-Amino-6-(2-methylthiazol-5-yl)pyrazin-2-yl)-4-methyl-N-((tetrahydrofuran-2-yl)methyl)benzenesulfonamide]	228 µL/min/mg	0.07 µM	4.1 µM	0.009 µM												0.82 µM
Cc1cc(F)c(S(=O)(=O)NCC(C)(C)O)cc1-c1cnc(N)c(-n2cncn2)n1 [Example 122, 5-(5-Amino-6-(1H-1,2,4-triazol-1-yl)pyrazin-2-yl)-2-fluoro-N-(2-hydroxy-2-methylpropyl)-4-methylbenzenesulfonamide]	26 µL/min/mg	0.49 µM	1.9 µM	0.085 µM	0.988 µM	0.296 µM	1.49 µM	1.6 µM	1.19 µM	6.6 µM	2.28 µM	0.151 µM	> 10 µM	2.2 µM		
Cc1ncc(-c2nc(-c3cc(S(=O)(=O)NCCCO)c(F)cc3C)cnc2N)s1 [Example 113, 5-(5-Amino-6-(2-methylthiazol-5-yl)pyrazin-2-yl)-2-fluoro-N-(3-hydroxypropyl)-4-methylbenzenesulfonamide]	39 µL/min/mg	0.05 µM	1.48 µM	0.008 µM	0.143 µM	0.024 µM	3.57 µM	0.32 µM	1.08 µM	3.45 µM	1.08 µM	0.055 µM	0.47 µM	0.44 µM		
Cc1ccc(S(=O)(=O)N[C@H]2CC[C@H](O)CC2)cc1-c1cnc(N)c(-c2cccnc2)n1 [Example 22, Trans-3-(5-Amino-6-pyridin-3-yl-pyrazin-2-yl)-N-(4-hydroxy-cyclohexyl)-4-methyl benzenesulfonamide]	47 µL/min/mg	0.76 µM	7.08 µM	0.044 µM	0.256 µM	0.1 µM	> 10 µM	0.42 µM	4.69 µM	8.02 µM	6.67 µM	0.164 µM	> 9.1 µM	5.71 µM		
CCONS(=O)(=O)c1ccc(C)c(-c2cnc(N)c(-n3cncn3)n2)c1 [Example 112, 3-(5-Amino-6-(1H-1,2,4-triazol-1-yl)pyrazin-2-yl)-N-ethoxy-4-methylbenzenesulfonamide]	62 µL/min/mg	0.86 µM	3.15 µM	0.019 µM	0.586 µM	0.172 µM	1.14 µM	0.5 µM	0.31 µM	6.3 µM	0.79 µM	0.095 µM	> 10 µM	3.3 µM		
Cc1ccc(S(=O)(=O)NCC2(C)COC2)cc1-c1cnc(N)c(-n2cncn2)n1 [Example 29, 3-(5-Amino-6-[1,2,4]triazol-1-yl-pyrazin-2-yl)-4-methyl-N-(3-methyl-oxetan-3-ylmethyl)-benzenesulfonamide]	62 µL/min/mg	1.3 µM	5.2 µM	0.009 µM	0.956 µM	0.314 µM	8.08 µM	0.91 µM	6.61 µM	> 9.1 µM	4.63 µM	0.206 µM	> 9.1 µM	6.8 µM		

Second part, led by results:

Assay M RLM CI(int) [1]	IC50 (PI 3-kinase alpha [2])	IC50 (PI 4-kinase beta)	IC50 (PI 3-kinase gamma [4])	IC50 [5]	IC50 (PI 3-kinase gamma [6])	IC50 (PI 3-kinase beta [7])	IC50 (PI 3-kinase delta [8]; read-out: Assay F PI3Kδ IC50)	IC50 (PI 3-kinase delta [9])	IC50 (mTOR)	IC50 (PI 3-kinase alpha [10])	IC50 (PI 3-kinase gamma [11])	IC50 (Vps34)	IC50 (PI 3-kinase beta [12])	IC50 (PI 3-kinase delta [8])	Compound	IC50 (PI 3-kinase alpha [3])
129 µL/min/mg	0.43 µM	1.7 µM	0.025 µM	1.86 µM	0.198 µM	> 3 µM	1.4 µM	6.51 µM	3.9 µM	0.65 µM	0.172 µM	> 10 µM	1.4 µM		Cc1ccc(S(=O)(=O)NC2CC2)cc1-c1cnc(N)c(-n2cncn2)n1 [Example 127.53]	
30 µL/min/mg	0.05 µM	4.98 µM	0.011 µM	0.106 µM	0.024 µM	1.73 µM		0.61 µM	3.31 µM	0.66 µM	0.014 µM	0.4 µM	0.88 µM	0.05 µM	Cc1ncc(-c2nc(-c3cc(S(=O)(=O)NC[C@H]4C[C@H](O)C4)ccc3C)cnc2N)s1 [Example 20b, trans-3-[5-Amino-6-(2-methyl-thiazol-5-yl)-pyrazin-2-yl]-N-(3-hydroxy-cyclobutylmethyl)-4-methyl-benzenesulfonamide]	
55 µL/min/mg	0.03 µM	5.28 µM	0.007 µM	0.232 µM	0.023 µM	1.43 µM		0.42 µM	1.88 µM	0.72 µM	0.011 µM	> 9.1 µM	1.06 µM	0.05 µM	Cc1ncc(-c2nc(-c3cc(S(=O)(=O)NC[C@H]4C[C@@H](O)C4)ccc3C)cnc2N)s1 [Example 20a, cis-3-[5-Amino-6-(2-methyl-thiazol-5-yl)-pyrazin-2-yl]-N-(3-hydroxy-cyclobutylmethyl)-4-methyl-benzenesulfonamide]	
202 µL/min/mg	0.33 µM	6.3 µM	0.05 µM	0.847 µM	0.391 µM	2.05 µM	0.81 µM	> 10 µM	7.1 µM	> 10 µM	0.085 µM	> 10 µM	1.1 µM		Cc1ccc(S(=O)(=O)NCC2(O)CCCC2)cc1-c1cnc(N)c(-n2cncn2)n1 [Example 127.35]	

Reference: patent US10004732B2 (Novartis AG, priority 2014, dated 2018)
